According to US5670618A, “Insulin-like peptide” (The State University of New Jersey, priority 1995, dated 1997):

What was measured:
[1] = molecular target: isolated plasma membranes (high affinity binding sites for insulin and IGF-I); assay: binding assays with isolated plasma membranes; design: species or system S. cerevisiae
[2] = tested on: solubilized and wheat germ column purified plasma membrane preparations; assay: binding to solubilized and wheat germ column purified plasma membrane preparations; design: species or system S. cerevisiae; conditions: wheat germ column purified membranes, comparable conditions
[3] = tested on: stationary phase cells (yeast); assay: stimulation of glycogen synthesis in yeast (14C-glucose incorporation); assay type: cell-based; conditions: binding to insulin-related receptor on yeast cell, under proper conditions
Description: To assay the effect of ScILP on glycogen synthesis, stationary phase cells are preincubated in phosphate buffer with various doses of ScILP (or a variant thereof). After 30 min of incubation in the presence of 1% glucose and uniformly labelled ^14 C-glucose, the cells are pelleted, resuspended in sodium carbonate, neutralized with HCl and treated with α-amylase to release the glucose incorporated into the newly synthesized glycogen. The enzymatically released glucose is collected and quantitated by scintillation counting.

[4] = tested on: insulin receptor-like protein in yeast; assay: autophosphorylation of insulin receptor-like protein in yeast; assay type: cell-based
[5] = tested on: cell wall-less strain of Neurospora; conditions: added to nutritionally rich, chemically defined culture medium; cited from earlier work
[6] = molecular target: T1, membrane-associated adenylate cyclase from Neurospora crassa (Neurospora crassa, UniProt Q01631); conditions: insulin at low doses (10^-9 M); cited from earlier work
T1 construct: host or cells: Neurospora crassa membranes

Tetrahymena pyriformis = conditions: cited from earlier work
[7] = tested on: cell wall-less strain of Neurospora; conditions: cited from earlier work
intact yeast cells = assay: porcine 125I-insulin binding and displacement, intact yeast cells; design: species or system S. cerevisiae
Description: Insulin binding studies with intact logarithmic and stationary phase yeast cells were performed under typical conditions for mammalian cells (25,26). In logarithmic phase yeast, porcine ^125 I-insulin binding had reached apparent equilibrium by 1-2 h and represented ca. 0.5% of the total counts specifically bound (FIG. 2a). At this time, greater than 95% of the labelled insulin appeared to be intact, as judged by TCA precipitable counts. Unlabelled porcine insulin displaced labelled insulin from intact yeast cells in a dose dependent fashion with 50% bound occurring around 10^-9 M (FIG. 2b). This value is in good agreement with the value obtained for displacement of insulin from mammalian cells.

T1 sequence (Q01631 whole entry): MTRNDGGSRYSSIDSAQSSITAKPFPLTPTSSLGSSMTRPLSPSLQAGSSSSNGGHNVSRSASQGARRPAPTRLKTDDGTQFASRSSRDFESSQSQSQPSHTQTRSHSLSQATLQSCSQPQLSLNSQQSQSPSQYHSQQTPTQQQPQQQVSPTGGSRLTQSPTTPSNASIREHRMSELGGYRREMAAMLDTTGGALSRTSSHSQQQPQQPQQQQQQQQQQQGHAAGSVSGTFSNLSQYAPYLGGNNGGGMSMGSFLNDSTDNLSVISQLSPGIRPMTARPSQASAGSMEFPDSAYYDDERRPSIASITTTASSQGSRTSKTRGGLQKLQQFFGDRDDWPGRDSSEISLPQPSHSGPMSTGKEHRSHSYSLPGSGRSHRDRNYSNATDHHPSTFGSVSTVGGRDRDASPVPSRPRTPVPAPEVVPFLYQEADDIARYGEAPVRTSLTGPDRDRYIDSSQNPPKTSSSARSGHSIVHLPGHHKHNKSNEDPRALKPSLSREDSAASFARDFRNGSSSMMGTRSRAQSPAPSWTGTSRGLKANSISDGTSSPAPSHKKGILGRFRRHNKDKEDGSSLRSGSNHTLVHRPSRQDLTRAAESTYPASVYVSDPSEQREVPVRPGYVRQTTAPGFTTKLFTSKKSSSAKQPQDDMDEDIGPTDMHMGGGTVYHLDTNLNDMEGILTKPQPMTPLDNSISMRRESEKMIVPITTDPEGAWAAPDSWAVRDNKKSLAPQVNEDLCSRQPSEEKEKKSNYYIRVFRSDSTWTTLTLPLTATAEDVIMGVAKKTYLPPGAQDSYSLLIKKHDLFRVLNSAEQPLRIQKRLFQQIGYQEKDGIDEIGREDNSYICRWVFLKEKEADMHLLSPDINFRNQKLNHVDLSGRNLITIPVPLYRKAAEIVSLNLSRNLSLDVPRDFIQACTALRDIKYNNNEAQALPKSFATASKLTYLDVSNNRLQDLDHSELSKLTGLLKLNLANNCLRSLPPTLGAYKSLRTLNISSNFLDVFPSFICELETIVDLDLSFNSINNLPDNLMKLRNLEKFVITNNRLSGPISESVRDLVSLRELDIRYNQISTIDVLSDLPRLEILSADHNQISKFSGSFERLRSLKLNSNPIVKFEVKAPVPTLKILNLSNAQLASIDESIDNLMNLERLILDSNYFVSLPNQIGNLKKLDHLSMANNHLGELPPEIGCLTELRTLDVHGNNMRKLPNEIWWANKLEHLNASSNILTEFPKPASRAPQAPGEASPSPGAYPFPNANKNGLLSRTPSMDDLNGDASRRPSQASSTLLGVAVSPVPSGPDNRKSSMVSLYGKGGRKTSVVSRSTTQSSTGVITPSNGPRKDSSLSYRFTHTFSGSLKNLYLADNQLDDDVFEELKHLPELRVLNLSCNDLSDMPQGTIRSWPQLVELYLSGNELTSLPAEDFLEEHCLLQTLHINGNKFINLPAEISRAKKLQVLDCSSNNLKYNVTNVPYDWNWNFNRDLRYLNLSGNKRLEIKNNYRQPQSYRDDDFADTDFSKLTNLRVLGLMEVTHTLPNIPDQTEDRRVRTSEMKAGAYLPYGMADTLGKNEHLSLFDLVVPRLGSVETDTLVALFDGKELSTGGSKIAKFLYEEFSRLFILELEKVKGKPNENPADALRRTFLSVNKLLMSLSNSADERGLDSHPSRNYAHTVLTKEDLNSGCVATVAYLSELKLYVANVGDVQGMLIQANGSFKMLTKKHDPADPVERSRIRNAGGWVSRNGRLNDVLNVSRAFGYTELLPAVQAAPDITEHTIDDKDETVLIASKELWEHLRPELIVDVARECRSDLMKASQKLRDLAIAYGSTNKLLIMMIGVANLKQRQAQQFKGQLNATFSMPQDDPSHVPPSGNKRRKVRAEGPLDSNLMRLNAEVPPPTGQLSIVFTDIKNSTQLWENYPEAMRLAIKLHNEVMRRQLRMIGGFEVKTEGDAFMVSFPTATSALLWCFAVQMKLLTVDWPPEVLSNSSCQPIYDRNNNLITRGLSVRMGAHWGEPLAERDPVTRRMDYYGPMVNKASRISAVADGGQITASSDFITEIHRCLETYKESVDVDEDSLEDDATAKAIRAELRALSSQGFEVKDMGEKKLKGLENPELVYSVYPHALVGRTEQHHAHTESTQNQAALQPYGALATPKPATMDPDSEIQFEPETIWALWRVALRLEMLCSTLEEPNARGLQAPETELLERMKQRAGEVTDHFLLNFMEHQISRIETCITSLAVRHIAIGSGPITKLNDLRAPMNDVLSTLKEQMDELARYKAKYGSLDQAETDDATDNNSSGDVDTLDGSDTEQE

Substance: insulin
- Kd [1]: 0.7 nM
- specific binding (of 4-5% total binding) [2]: 1-2%

Substance: mammalian insulin
- effect on glycogen synthesis [3]: stimulates glycogen synthesis
- autophosphorylation of insulin receptor-like protein on tyrosine residues [4]: results in its autophosphorylation on tyrosine residues
- influence on growth, morphology and viability [5]: distinctively different morphology, enhanced growth, and extension of viability at the stationary phase in culture

Substance: bovine insulin
- effect on adenylate cyclase specific activity [6]: significantly inhibit
- effect on glucose uptake (Tetrahymena pyriformis): small effect
- increase of 14C-labelled glucose incorporation into glycogen ([7]; 30 min treatment, 100 nM): 41%
- more glycogen than control cells ([7]; cells grown in presence of 100 nM insulin): 40%
- intracellular levels of UDPG-glucose by 31P-NMR [7]: increase

Substance: proinsulin
- influence on growth, morphology and viability [5]: inactive

Substance: insulin-like growth factor (IGF-I)
- specific binding (of 4-5% total binding) [2]: 1-2%

Substance: glucagon
- effect on adenylate cyclase specific activity [6]: stimulated adenylate cyclase activity

Substance: porcine insulin
- labelled insulin intact, judged by TCA precipitable counts (intact yeast cells; at apparent equilibrium of binding (1-2 h)): greater than 95%
- IC50 (intact yeast cells; intact yeast cells, dose dependent displacement, read-out: concentration of unlabelled insulin at 50% bound (displacement of labelled insulin)): ~1 nM
- time to apparent binding equilibrium (intact yeast cells; logarithmic phase yeast): 1 to 2 h
- total counts specifically bound (intact yeast cells; logarithmic phase yeast, at apparent equilibrium): ca. 0.5%

Substance: reduced insulin
- influence on growth, morphology and viability [5]: inactive
